Data on 5 cell lines can be found in the supplement of paper PMC10307832.

What all share (assay): relative viability (nuclei count vs DMSO), 5 days (fraction); higher = more cells survive
Compound in test [1]: NC(=O)[C@@H](CCC(F)(F)F)N(Cc1ccc(-c2ncon2)cc1F)S(=O)(=O)c1ccc(Cl)cc1 [Avagacestat] + CC(=O)Nc1cccc(-n2c(=O)n(C3CC3)c(=O)c3c(Nc4ccc(I)cc4F)n(C)c(=O)c(C)c32)c1 [Trametinib] (partner 0.02 µM)
The essentials: (§1)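 Lung cancer cell lines were seeded in 1536-well plates and dosed by pin tool the next day, with either a single drug or a fixed anchor-drug dose combined with five library-drug doses (not always all listed) spaced in √10 steps. Five days later, one step fixed the cells and stained their nuclei (final 0.05% Triton X-100, 1% formaldehyde, 1 ug/ml Hoechst), and nuclei were counted on 4× images. Relative viability is the nuclei count in treated wells divided by the count in vehicle wells, and each value is the median of duplicate plates.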

Compound in test [2]: NC(=O)[C@@H](CCC(F)(F)F)N(Cc1ccc(-c2ncon2)cc1F)S(=O)(=O)c1ccc(Cl)cc1 [Avagacestat] + CC1(C)CCC(c2ccc(Cl)cc2)=C(CN2CCN(c3ccc(C(=O)NS(=O)(=O)c4ccc(N[C@H](CCN5CCOCC5)CSc5ccccc5)c(S(=O)(=O)C(F)(F)F)c4)cc3)CC2)C1 [Navitoclax] (partner 0.5 µM)
The essentials:
as §1

Compound in test [3]: NC(=O)[C@@H](CCC(F)(F)F)N(Cc1ccc(-c2ncon2)cc1F)S(=O)(=O)c1ccc(Cl)cc1 [Avagacestat] + N=C(N)NC(=N)NCCc1ccccc1 [Phenformin] (partner 250 µM)
The essentials:
as §1

Compound in test [4]: NC(=O)[C@@H](CCC(F)(F)F)N(Cc1ccc(-c2ncon2)cc1F)S(=O)(=O)c1ccc(Cl)cc1 [Avagacestat] + Nc1nc2[nH]cc(CCc3ccc(C(=O)N[C@@H](CCC(=O)O)C(=O)O)cc3)c2c(=O)[nH]1 [Pemetrexed] (partner 0.2 µM)
The essentials:
as §1

For NCI-H2405, the relative viability is 0.687 in test [1] (first compound 0.08 µM); 0.69 in test [1] (first compound 0.253 µM); 0.548 in test [1] (first compound 0.8 µM); 0.508 in test [1] (first compound 2.53 µM); 0.554 in test [1] (first compound 8 µM); 0.864 in test [2] (first compound 0.08 µM). The relative viability in test [2] (first compound 0.253 µM) was 0.937; in test [2] (first compound 0.8 µM) it was 0.779; in test [2] (first compound 2.53 µM) it was 0.638; in test [2] (first compound 8 µM), 0.797; in test [3] (first compound 0.08 µM) it was 0.393; in test [3] (first compound 0.253 µM) it was 0.45. For the same cell line, the relative viability turned out to be 0.44 in test [3] (first compound 0.8 µM); 0.381 in test [3] (first compound 2.53 µM); 0.408 in test [3] (first compound 8 µM); 1.15 in test [4] (first compound 0.08 µM); 1.17 in test [4] (first compound 0.253 µM); 1.12 in test [4] (first compound 0.8 µM). Moreover, the relative viability came to 1.01 in test [4] (first compound 2.53 µM) and 1.03 in test [4] (first compound 8 µM).
On to NCI-H2228, for which the relative viability is 0.591 in test [1] (first compound 0.08 µM); 0.535 in test [1] (first compound 0.253 µM); 0.753 in test [1] (first compound 0.8 µM); 0.59 in test [1] (first compound 2.53 µM); 0.354 in test [1] (first compound 8 µM); 1.25 in test [2] (first compound 0.08 µM). Further, the relative viability in test [2] (first compound 0.253 µM) worked out at 1.19; in test [2] (first compound 0.8 µM) it was 1.08; in test [2] (first compound 2.53 µM), 0.903; in test [2] (first compound 8 µM), 0.956; in test [3] (first compound 0.08 µM) it was 0.417; in test [3] (first compound 0.253 µM), 0.263. Also, the relative viability in test [3] (first compound 0.8 µM) came to 0.271; in test [3] (first compound 2.53 µM) it was 0.296; in test [3] (first compound 8 µM), 0.243; in test [4] (first compound 0.08 µM) it was 0.364; in test [4] (first compound 0.253 µM), 0.35; in test [4] (first compound 0.8 µM), 0.346. Also, the results for the relative viability in test [4] (first compound 2.53 µM) and in test [4] (first compound 8 µM) were 0.301 and 0.302, respectively.
Consider HOP-62, for which the relative viability in test [1] (first compound 0.08 µM) is 0.381; in test [1] (first compound 0.253 µM), 0.372; in test [1] (first compound 0.8 µM), 0.4; in test [1] (first compound 2.53 µM), 0.323; in test [1] (first compound 8 µM) it was 0.304; in test [2] (first compound 0.08 µM), 1.26. Besides, the relative viability was 1.12 in test [2] (first compound 0.253 µM); 0.962 in test [2] (first compound 0.8 µM); 0.978 in test [2] (first compound 2.53 µM); 0.895 in test [2] (first compound 8 µM); 0.874 in test [3] (first compound 0.08 µM); 0.775 in test [3] (first compound 0.253 µM). The relative viability in test [3] (first compound 0.8 µM) worked out at 0.76; in test [3] (first compound 2.53 µM), 0.657; in test [3] (first compound 8 µM), 0.492; in test [4] (first compound 0.08 µM), 0.344; in test [4] (first compound 0.253 µM) it was 0.359; in test [4] (first compound 0.8 µM), 0.329. In addition, the relative viability in test [4] (first compound 2.53 µM) came to 0.312; in test [4] (first compound 8 µM), 0.29.
Turning to NCI-H322M, the relative viability was found to be 0.48 in test [1] (first compound 0.08 µM); 0.457 in test [1] (first compound 0.253 µM); 0.343 in test [1] (first compound 0.8 µM); 0.465 in test [1] (first compound 2.53 µM); 0.443 in test [1] (first compound 8 µM); 1.24 in test [2] (first compound 0.08 µM). In addition, the relative viability in test [2] (first compound 0.253 µM) worked out at 1.16; in test [2] (first compound 0.8 µM), 1.22; in test [2] (first compound 2.53 µM) it was 1.14; in test [2] (first compound 8 µM), 1.07; in test [3] (first compound 0.08 µM) it was 0.733; in test [3] (first compound 0.253 µM) it was 0.748. Besides, the relative viability stood at 0.712 in test [3] (first compound 0.8 µM); 0.69 in test [3] (first compound 2.53 µM); 0.65 in test [3] (first compound 8 µM); 0.621 in test [4] (first compound 0.08 µM); 0.619 in test [4] (first compound 0.253 µM); 0.632 in test [4] (first compound 0.8 µM). The relative viability in test [4] (first compound 2.53 µM) was found to be 0.608; in test [4] (first compound 8 µM), 0.569.
As to HCC-78, the relative viability was determined as 0.878 in test [1] (first compound 0.08 µM); 0.933 in test [1] (first compound 0.253 µM); 0.888 in test [1] (first compound 0.8 µM); 0.789 in test [1] (first compound 2.53 µM); 0.726 in test [1] (first compound 8 µM); 0.884 in test [2] (first compound 0.08 µM). In addition, the relative viability in test [2] (first compound 0.253 µM) turned out to be 0.818; in test [2] (first compound 0.8 µM) it was 0.791; in test [2] (first compound 2.53 µM) it was 0.665; in test [2] (first compound 8 µM), 0.68; in test [3] (first compound 0.08 µM) it was 0.71; in test [3] (first compound 0.253 µM), 0.763. Moreover, the relative viability in test [3] (first compound 0.8 µM) amounted to 0.811; in test [3] (first compound 2.53 µM), 0.66; in test [3] (first compound 8 µM), 0.724; in test [4] (first compound 0.08 µM), 0.901; in test [4] (first compound 0.253 µM), 0.976; in test [4] (first compound 0.8 µM) it was 0.933. In addition, the relative viability in test [4] (first compound 2.53 µM) was found to be 0.883; in test [4] (first compound 8 µM) it was 0.851.
